This passage reports IC50 and GI50 results from patent US12552785B2, “Pyrazolo[1,5-α]pyridine derivative, preparation method therefor, and composition and use thereof” (SHENZHEN ZHONGGE BIOLOGICAL TECHNOLOGY CO., LTD., priority 2020, dated 2026).

The target of one assay is RET (Homo sapiens, UniProt P07949). Description: HTRF method for testing the inhibitory activity of compounds against RET. In kind it is biochemical. Particulars: IC50 by nonlinear regression, read-out: RET kinase activity. Here is the method: (a) In Vitro Screening Experiment-HTRF Method for Testing the Inhibitory Activity of Compounds Against RET Experimental Procedure: 1. […] 2. The test compound (5 mM stock solution) was diluted 5 folds to 1 mM with 100% dimethyl sulfoxide; the compound was diluted into 10 concentrations at an equal ratio of 1:3 in a 384-well dilution plate. 3. 0.2 μL of the serially diluted compound was added to a 384-well plate using an Echo 550 pipetting system, 2 replicate wells for each concentration, and the final concentration of dimethyl sulfoxide was 0.5% (v/v). […] 6. […] The reaction solution was centrifuged at 1000 g for 30 s, and then sealed, and incubated at room temperature for 30 min. 8. […] 10. […] 11. […] IC50 was calculated with software GraphPad 6.0 by fitting inhibition values and logarithms of compound concentrations to a nonlinear regression (dose response−variable slope).
Chain of RET (P07949 29-1114): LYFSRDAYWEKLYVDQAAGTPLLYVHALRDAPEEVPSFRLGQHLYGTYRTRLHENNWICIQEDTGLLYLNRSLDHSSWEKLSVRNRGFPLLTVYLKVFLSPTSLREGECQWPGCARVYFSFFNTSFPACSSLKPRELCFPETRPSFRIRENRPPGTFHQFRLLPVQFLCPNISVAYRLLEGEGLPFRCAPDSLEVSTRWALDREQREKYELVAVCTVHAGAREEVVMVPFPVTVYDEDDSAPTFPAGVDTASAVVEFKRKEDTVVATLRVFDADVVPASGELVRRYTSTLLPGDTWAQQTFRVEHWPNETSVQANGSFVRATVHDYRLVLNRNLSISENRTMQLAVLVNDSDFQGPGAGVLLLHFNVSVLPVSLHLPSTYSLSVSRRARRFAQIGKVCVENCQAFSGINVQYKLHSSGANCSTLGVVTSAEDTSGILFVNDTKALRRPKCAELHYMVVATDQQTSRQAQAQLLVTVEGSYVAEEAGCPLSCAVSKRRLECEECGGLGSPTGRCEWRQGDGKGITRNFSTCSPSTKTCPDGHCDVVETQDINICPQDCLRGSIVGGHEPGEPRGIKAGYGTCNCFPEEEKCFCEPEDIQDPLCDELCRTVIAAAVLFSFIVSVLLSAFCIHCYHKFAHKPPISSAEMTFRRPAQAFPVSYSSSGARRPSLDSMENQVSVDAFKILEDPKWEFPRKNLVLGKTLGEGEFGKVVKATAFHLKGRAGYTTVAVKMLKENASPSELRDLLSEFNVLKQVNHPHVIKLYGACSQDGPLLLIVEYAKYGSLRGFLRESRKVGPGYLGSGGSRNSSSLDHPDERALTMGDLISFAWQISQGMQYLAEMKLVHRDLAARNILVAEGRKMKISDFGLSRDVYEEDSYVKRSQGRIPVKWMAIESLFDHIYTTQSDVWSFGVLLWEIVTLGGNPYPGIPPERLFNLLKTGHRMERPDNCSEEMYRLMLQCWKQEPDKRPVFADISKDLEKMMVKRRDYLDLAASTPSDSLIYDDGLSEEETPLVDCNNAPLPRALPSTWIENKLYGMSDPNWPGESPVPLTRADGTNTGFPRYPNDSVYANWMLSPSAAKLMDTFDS
(In general: Time-resolved FRET reads energy transfer from a long-lived donor to a nearby acceptor.)

Another assay has as its target T1, Ba/F3-KIF5B-RET cell (Homo sapiens, UniProt P07949).
T1 construct: fused on or other part: P33176 (Kinesin-1 heavy chain)
Description: CellTiter-Glo luminescence assay for inhibitory activity against Ba/F3-KIF5B-RET cell. In kind it is cell-based. The note with it: Ba/F3-KIF5B-RET cells, 72 h. An excerpt:
(c) In Vitro Screening Experiment—CellTiter-Glo Luminescence Assay for Testing the Inhibitory Activity of Compounds Against Ba/F3-KIF5B-RET Cell Experimental Procedure: 1. The mammalian cell expression vector containing human KIF5B-RET cDNA was introduced into Ba/F3 cells using the Neon® transfection system method, and the surviving clones screened by puromycin were subjected to cell growth inhibitory function experiments and Western blotting to verify cell lines with stable and high expression of RET. 2. […] 3. The test compound (5 mM stock) was diluted 2.5 folds to 2 mM with 100% dimethyl sulfoxide; and the compound was diluted into 10 concentrations at an equal ratio of 1:3 in a 384-well dilution plate. 4. […] 6. […] 7. By fitting the data with XLFit 5.0 based on the parameters formula, the IC50 value was calculated as: Y=Bottom+(Top−Bottom)/(1+10^((Log IC50−X)*HillSlope)).
In general terms: Cellular ATP, detected with luciferase, serves as a proxy for viable cell number.

A further assay addresses VEGFR2 (Homo sapiens, UniProt P35968). Briefly: HTRF method for testing the inhibitory activity of compounds against VEGFR2. The class given is biochemical. The note with it: IC50 by nonlinear regression, read-out: VEGFR2 kinase activity. Here is the method:
(b) In Vitro Screening Experiment—HTRF Method for Testing the Inhibitory Activity of Compounds Against VEGFR2 Experimental Procedure: 1. […] The test compound (5 mM stock solution) was diluted 5 folds to 1 mM with 100% dimethyl sulfoxide; the compound was diluted into 10 concentrations at an equal ratio of 1:3 in a 384-well dilution plate. 3. […] 6. […] The reaction solution was centrifuged at 1000 g for 30 s, and then sealed, and incubated at room temperature for 40 min. 8. […] 10. […] 11. […] 12. IC50 was calculated with software GraphPad 6.0 by fitting inhibition values and logarithms of compound concentrations to a nonlinear regression (dose response−variable slope).

pIC50: −log10 of the molar value.

Chain of VEGFR2 (P35968 20-1356, species assumed): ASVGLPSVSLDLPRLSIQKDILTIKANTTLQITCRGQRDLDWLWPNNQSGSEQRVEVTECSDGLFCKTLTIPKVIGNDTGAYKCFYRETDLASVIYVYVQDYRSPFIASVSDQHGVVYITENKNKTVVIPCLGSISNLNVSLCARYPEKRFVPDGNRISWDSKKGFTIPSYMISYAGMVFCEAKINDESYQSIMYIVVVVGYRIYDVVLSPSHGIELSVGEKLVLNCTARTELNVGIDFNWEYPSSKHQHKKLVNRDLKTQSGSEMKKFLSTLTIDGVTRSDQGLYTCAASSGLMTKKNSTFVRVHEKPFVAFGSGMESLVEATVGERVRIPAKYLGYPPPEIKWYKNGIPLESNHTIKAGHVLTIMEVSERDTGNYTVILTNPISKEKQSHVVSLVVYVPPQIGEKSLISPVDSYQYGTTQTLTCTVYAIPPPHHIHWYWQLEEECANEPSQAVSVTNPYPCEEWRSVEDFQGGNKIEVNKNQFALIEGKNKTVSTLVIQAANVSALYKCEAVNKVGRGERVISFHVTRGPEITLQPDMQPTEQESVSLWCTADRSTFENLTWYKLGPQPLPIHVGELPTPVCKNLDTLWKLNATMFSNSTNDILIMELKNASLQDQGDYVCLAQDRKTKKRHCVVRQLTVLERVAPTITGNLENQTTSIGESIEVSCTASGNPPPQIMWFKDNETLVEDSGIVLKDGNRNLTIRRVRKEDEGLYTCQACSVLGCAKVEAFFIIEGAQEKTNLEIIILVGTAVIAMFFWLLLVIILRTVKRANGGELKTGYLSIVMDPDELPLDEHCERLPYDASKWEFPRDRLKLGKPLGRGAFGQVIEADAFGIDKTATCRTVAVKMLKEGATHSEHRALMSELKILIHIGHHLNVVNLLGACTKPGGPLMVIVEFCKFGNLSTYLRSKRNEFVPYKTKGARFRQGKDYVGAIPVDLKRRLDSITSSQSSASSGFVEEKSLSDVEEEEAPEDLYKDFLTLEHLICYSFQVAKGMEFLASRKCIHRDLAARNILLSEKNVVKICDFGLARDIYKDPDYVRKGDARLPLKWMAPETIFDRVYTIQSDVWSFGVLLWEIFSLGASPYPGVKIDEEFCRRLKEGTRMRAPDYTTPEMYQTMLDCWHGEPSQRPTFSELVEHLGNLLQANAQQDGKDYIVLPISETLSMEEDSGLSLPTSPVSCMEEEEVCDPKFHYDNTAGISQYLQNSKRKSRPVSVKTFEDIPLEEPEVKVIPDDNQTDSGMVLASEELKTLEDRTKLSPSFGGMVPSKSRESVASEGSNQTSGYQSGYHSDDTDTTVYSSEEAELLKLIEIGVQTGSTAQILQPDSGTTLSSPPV
T1 sequence (P07949 whole entry, change not shown, the tested form may be a part): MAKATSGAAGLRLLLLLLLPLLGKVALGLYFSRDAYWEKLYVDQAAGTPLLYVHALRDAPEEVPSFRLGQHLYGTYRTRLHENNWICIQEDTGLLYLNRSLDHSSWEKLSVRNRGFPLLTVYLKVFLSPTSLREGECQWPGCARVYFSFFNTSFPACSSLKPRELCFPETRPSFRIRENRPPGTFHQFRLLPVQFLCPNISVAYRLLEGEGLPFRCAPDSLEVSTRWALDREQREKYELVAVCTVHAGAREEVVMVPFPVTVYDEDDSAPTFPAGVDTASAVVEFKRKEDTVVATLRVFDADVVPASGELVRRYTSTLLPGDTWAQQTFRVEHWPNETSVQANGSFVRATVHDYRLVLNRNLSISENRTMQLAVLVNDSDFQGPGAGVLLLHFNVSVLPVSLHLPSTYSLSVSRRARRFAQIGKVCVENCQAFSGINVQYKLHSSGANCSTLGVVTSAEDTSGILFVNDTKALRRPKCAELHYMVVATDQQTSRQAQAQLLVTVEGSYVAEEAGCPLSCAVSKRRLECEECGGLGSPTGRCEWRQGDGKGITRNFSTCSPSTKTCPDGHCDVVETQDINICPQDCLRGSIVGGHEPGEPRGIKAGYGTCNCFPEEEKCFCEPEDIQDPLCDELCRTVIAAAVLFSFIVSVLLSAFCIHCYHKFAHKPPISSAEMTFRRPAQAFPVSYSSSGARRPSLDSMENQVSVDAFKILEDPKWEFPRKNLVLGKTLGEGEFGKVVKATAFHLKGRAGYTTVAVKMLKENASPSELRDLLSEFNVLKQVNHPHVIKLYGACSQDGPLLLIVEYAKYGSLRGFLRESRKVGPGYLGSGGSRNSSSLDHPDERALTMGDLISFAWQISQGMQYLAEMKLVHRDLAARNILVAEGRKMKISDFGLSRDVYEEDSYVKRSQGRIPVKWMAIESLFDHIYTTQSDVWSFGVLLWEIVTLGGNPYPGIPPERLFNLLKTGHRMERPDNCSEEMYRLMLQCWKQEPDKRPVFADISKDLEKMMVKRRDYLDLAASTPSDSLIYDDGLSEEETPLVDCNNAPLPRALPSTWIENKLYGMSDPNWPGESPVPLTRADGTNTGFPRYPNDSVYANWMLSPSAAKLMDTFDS

As for `CN(Cc1ccc2ncccc2c1)c1ccc(-c2cc(OCC(C)(C)O)cn3ncc(C#N)c23)cn1` [Compound 14, 6-(2-hydroxy-2-methylpropoxy)-4-(6-(methyl(quinolin-6-ylmethyl)amino)pyridin-3-yl)pyrazolo[1,5-a]pyridine-3-carbonitrile], the pIC50 on RET was 7.78; at VEGFR2, 6.46. Besides, at Ba/F3-KIF5B-RET cell, growth was halved (GI50) at 220 nM.

As to `CC[C@H](Nc1ccc(-c2cc(OCC(C)(C)O)cn3ncc(C#N)c23)cn1)c1ccc(-n2cc(F)cn2)nc1` [Compound 15, (S)-4-(6-((1-(6-(4-fluoro-1H-pyrazol-1-yl)pyridin-3-yl)propyl)amino)pyridin-3-yl)-6-(2-hydroxy-2-methylpropoxy)pyrazolo[1,5-a]pyridine-3-carbonitrile], the pIC50 on RET was 9.24; at VEGFR2, 8.53. For the same compound, the GI50 at Ba/F3-KIF5B-RET cell turned out to be 10.4 nM.

Regarding `C[C@H](Nc1ccc(-c2cc(OCC(C)(C)O)cn3ncc(C#N)c23)cn1)c1ccc(-n2cc(F)cn2)cc1` [Compound 16, (S)-4-(6-((1-(4-(4-fluoro-1H-pyrazol-1-yl)phenyl)ethyl)amino)pyridin-3-yl)-6-(2-hydroxy-2-methylpropoxy)pyrazolo[1,5-a]pyridine-3-carbonitrile], the pIC50 on RET is 8.79; at VEGFR2, 7.81. This compound also registered a GI50 on Ba/F3-KIF5B-RET cell of 35.5 nM.

Turning to `C[C@@H](c1ccc(-n2cc(F)cn2)cc1)N(C)c1ccc(-c2cc(OCC(C)(C)C#N)cn3ncc(C#N)c23)cn1` [Compound 17, (S)-6-(2-cyano-2-methylpropoxy)-4-(6-((1-(4-(4-fluoro-1H-pyrazol-1-yl)phenyl)ethyl)(methyl)amino)pyridin-3-yl)pyrazolo[1,5-a]pyridine-3-carbonitrile], the pIC50 on RET was 7.73; on VEGFR2, 5.92. The concentration for 50% growth inhibition (GI50) at Ba/F3-KIF5B-RET cell worked out at 184 nM.

As for `C[C@@H](c1ccc(-n2cc(F)cn2)nc1)N(C)c1ccc(-c2cc(OCC(C)(C)C#N)cn3ncc(C#N)c23)cn1` [Compound 18, (S)-6-(2-cyano-2-methylpropoxy)-4-(6-((1-(6-(4-fluoro-1H-pyrazol-1-yl)pyridine-3-yl)ethyl)(methyl)amino)pyridin-3-yl)pyrazolo[1,5-a]pyridine-3-carbonitrile], the pIC50 is 9.40 at RET and 6.87 on VEGFR2. Moreover, the 50% growth inhibitory concentration (GI50) on Ba/F3-KIF5B-RET cell came to 40 nM.

In the case of `C[C@@H](c1ccc(-n2cc(F)cn2)nc1)N(C)c1ccc(-c2cc(N3CCN(C)CC3)cn3ncc(C#N)c23)cn1` [Compound 19, (S)-4-(6-((1-(6-(4-fluoro-1H-pyrazol-1-yl)pyridin-3-yl)ethyl)(methyl)amino)pyridine-3-yl)-6-(4-methylpiperazin-1-yl)pyrazolo[1,5-a]pyridine-3-carbonitrile], the pIC50 is 9.38 on RET and 7.39 at VEGFR2. The same compound yielded a GI50 at Ba/F3-KIF5B-RET cell of 41 nM.

Take `C[C@@H](c1ccc(-n2cc(F)cn2)nc1)N(C)c1ccc(-c2cc(OCCO)cn3ncc(C#N)c23)cn1` [Compound 20]: the pIC50 on RET was 9.60; at VEGFR2, 8.00. Besides, at Ba/F3-KIF5B-RET cell, the GI50 was 13.5 nM.

As to `C[C@@H](c1ccc(-n2cc(F)cn2)nc1)N(C)c1ccc(-c2cc(N3CCC(C)(O)CC3)cn3ncc(C#N)c23)cn1` [Compound 23, (S)-4-(6-((1-(6-(4-fluoro-1H-pyrazol-1-yl)pyridin-3-yl)ethyl)(methyl)amino)pyridine-3-yl)-6-(4-hydroxy-4-methylpiperidin-1-yl)pyrazolo[1,5-a]pyridine-3-carbonitrile], the pIC50 on RET is 9.09; on VEGFR2, 7.13. The GI50 on Ba/F3-KIF5B-RET cell is 18.1 nM.

For `C[C@@H](c1ccc(-n2cc(F)cn2)nc1)N(C)c1ccc(-c2cc(N3CC(C)(C#N)C3)cn3ncc(C#N)c23)cn1` [Compound 24], the pIC50 on RET was 9.00; at VEGFR2 it was 7.19. The compound also gave a GI50 on Ba/F3-KIF5B-RET cell of 5.85 nM.

`C[C@@H](c1ccc(-n2cc(F)cn2)nc1)N(C)c1ccc(-c2cc(N3CCC4(CC3)COC4)cn3ncc(C#N)c23)cn1` [Compound 25, (S)-4-(6-((1-(6-(4-fluoro-1H-pyrazol-1-yl)pyridin-3-yl)ethyl)(methyl)amino)pyridine-3-yl)-6-(2-oxo-7-azaspiro[3.5]nonan-7-yl)pyrazolo[1,5-a]pyridine-3-carbonitrile]: the figures for the pIC50 at RET and at VEGFR2 were 9.27 and 7.21, respectively. Moreover, the 50% growth inhibitory concentration (GI50) at Ba/F3-KIF5B-RET cell came out at 14.7 nM.

As for `C[C@@H](c1ccc(-n2cc(F)cn2)nc1)N(C)c1ccc(-c2cc(N3CCOCC3)cn3ncc(C#N)c23)cn1` [Compound 26, (S)-4-(6-((1-(6-(4-fluoro-1H-pyrazol-1-yl)pyridin-3-yl)ethyl)(methyl)amino)pyridine-3-yl)-6-morpholinopyrazolo[1,5-a]pyridine-3-carbonitrile], the pIC50 is 9.61 at RET and 7.48 on VEGFR2. For the same compound, the GI50 on Ba/F3-KIF5B-RET cell stood at 7.4 nM.

Regarding `C[C@@H](c1ccc(-n2cc(F)cn2)nc1)N(C)c1ccc(-c2cc(C#CC(C)(C)O)cn3ncc(C#N)c23)cn1` [Compound 27, (S)-4-(6-((1-(6-(4-fluoro-1H-pyrazol-1-yl)pyridin-3-yl)ethyl)(methyl)amino)pyridine-3-yl)-6-(3-hydroxy-3-methyl-1-yn-1-yl)pyrazolo[1,5-a]pyridine-3-carbonitrile], the pIC50 was 8.88 at RET and 7.66 at VEGFR2. This compound also displayed a GI50 at Ba/F3-KIF5B-RET cell of 43.8 nM.

In the case of `C[C@@H](c1ccc(-n2cc(F)cn2)nc1)N(C)c1ccc(-c2cc(OCC3CC3)cn3ncc(C#N)c23)cn1` [Compound 28, (S)-6-(cyclopropylmethoxy)-4-(6-((1-(6-(4-fluoro-1H-pyrazol-1-yl)pyridin-3-yl)ethyl)(methyl)amino)pyridin-3-yl)pyrazolo[1,5-a]pyridine-3-carbonitrile], the pIC50 at RET was 8.65; on VEGFR2, 5.92. Further, at Ba/F3-KIF5B-RET cell, the GI50 was 177 nM.

With `C[C@@H](c1ccc(-n2cc(F)cn2)nc1)N(C)c1ccc(-c2cc(-c3cnn(C)c3)cn3ncc(C#N)c23)cn1` [Compound 29, (S)-6-(1-methyl-1H-pyrazol-4-yl)-4-(6-((1-(6-(4-fluoro-1H-pyrazol-1-yl)pyridine-3-yl)ethyl)(methyl)amino)pyridin-3-yl)pyrazolo[1,5-a]pyridine-3-carbonitrile], the pIC50 on RET was 9.44; at VEGFR2 it was 8.48. The compound also had a GI50 on Ba/F3-KIF5B-RET cell of 0.75 nM.

Take `CCOc1cc(-c2ccc(N(C)[C@@H](C)c3ccc(-n4cc(F)cn4)nc3)nc2)c2c(C#N)cnn2c1` [Compound 30, (S)-4-(6-((1-(6-(4-fluoro-1H-pyrazol-1-yl)pyridin-3-yl)ethyl)(methyl)amino)pyridine-3-yl)-6-ethoxypyrazolo[1,5-a]pyridine-3-carbonitrile]: the pIC50 was 9.33 on RET and 6.76 on VEGFR2. In addition, growth at Ba/F3-KIF5B-RET cell was halved (GI50) at 15.1 nM.

Take `C[C@@H](c1ccc(-n2cc(F)cn2)nc1)N(C)c1ccc(-c2cc(OCC#N)cn3ncc(C#N)c23)cn1` [Compound 32, (S)-4-(6-((1-(6-(4-fluoro-1H-pyrazol-1-yl)pyridin-3-yl)ethyl)(methyl)amino)pyridine-3-yl)-6-cyanomethoxypyrazolo[1,5-a]pyridine-3-carbonitrile]: the pIC50 at RET was 8.37; on VEGFR2, less than 5.30. This compound came in with a GI50 at Ba/F3-KIF5B-RET cell of 224 nM.

As for `CC(C)COc1cc(-c2ccc(N(C)[C@@H](C)c3ccc(-n4cc(F)cn4)nc3)nc2)c2c(C#N)cnn2c1` [Compound 33, (S)-4-(6-((1-(6-(4-fluoro-1H-pyrazol-1-yl)pyridin-3-yl)ethyl)(methyl)amino)pyridine-3-yl)-6-isobutoxypyrazolo[1,5-a]pyridine-3-carbonitrile], the figures for the pIC50 at RET and at VEGFR2 were 8.52 and less than 5.30, respectively. Besides, the GI50 on Ba/F3-KIF5B-RET cell was determined as 413 nM.

As for `C[C@@H](c1ccc(-n2cc(F)cn2)nc1)N(C)c1ccc(-c2cc(OCC(F)F)cn3ncc(C#N)c23)cn1` [Compound 34, (S)-4-(6-((1-(6-(4-fluoro-1H-pyrazol-1-yl)pyridin-3-yl)ethyl)(methyl)amino)pyridine-3-yl)-6-(2,2-difluoroethoxy)pyrazolo[1,5-a]pyridine-3-carbonitrile], the pIC50 on RET was 8.81; at VEGFR2, 6.89. The compound further registered a GI50 on Ba/F3-KIF5B-RET cell of 119 nM.

Usually GI50 stands for the concentration at which growth is held to half of that of the control. A low value points to greater sensitivity of the cells.
